# Measurements taken from patent US20190144912A1, “METHODS FOR IDENTIFYING NOVEL ANTIBIOTICS AND RELATED COMPOSITIONS” (priority 2015, published 2019).
# T1: Lsp FRET peptide substrate Dabsyl-VTGC((R)-2,3-di(palmitoyloxy)-propyl)AKD(EDANS)
# T1 chain: VTGCAKD
# Assays:
# E. coli Lsp [1] = target: T2, E. coli Lsp (Escherichia coli, UniProt P00804, D131G/R160K); assay: biochemical; set-up: The full length E. coli Lsp clone was generated using colony PCR of E. coli K12; His-tag (pET19b leader); made in house; host or cells: E. coli BL21(DE3)pLysS
# Procedure: Utilizing the purified and solubilized Lsp enzyme, we developed an in vitro high-throughput functional screening for the integral membrane protease Lsp. First, screening of the Maybridge HitFinder library (Thermo Fisher) was conducted in black polystyrene 384-well low volume plates (Greiner #788076) using a BioRAPTR reagent dispenser (Beckman Coulter). Purified Lsp was diluted to 500 nM in assay buffer (PBS, 5% glycerol, 0.5% DDM pH 7.4) and 10 µL of this stock was added into each well. Next, 100 nL of a 2 mM stock of library compounds were pinned into each well and plates were centrifuged briefly. Following incubation at room temperature for 30 minutes, 2.5 μL of 250 μM Lsp FRET substrate in 25% dimethyl sulfoxide (DMSO), 75% assay buffer was added to each well. The plates were spun down and incubated for 30 minutes at room temperature. The assay was quenched with 2.5 μL of a solution containing 500 mM zinc chloride in water, giving a final concentration of 83 mM. The concentration of Lsp, FRET substrate, and library compounds during the activity assay were 400 nM, 50 μM, and 16 μM, respectively.
# Catalytic signal was defined as the full enzyme activity pinning DMSO only, and background signal was measured by adding substrate to assay buffer containing no Lsp.
# We tested several fixed concentrations of BBS-20 against varying concentrations of Lsp FRET substrate to determine a mechanism of inhibition (FIG. 8).
# E. coli Lsp [2] = target: T2, E. coli Lsp; conditions: resynthesized compound
# Procedure: Next, 50 nL of stock TSRI FL library compounds were pinned into each well to a final concentration of 8.4 μM and plates were centrifuged briefly. […] Fluorescence was measured on an EnVision pate reader (ex. 355 nm; em. 495 nm).
# The 344 compounds were subjected to a dose-dependent titration assay with 10-point dose-response titrations (3-fold dilutions) in triplicate. LSP primary and pre-quench titration assays employed the same reagents, protocols, and detection systems as the secondary assays. […] Globomycin was included in the both titration assays as a control. For each test compound, percent activity was plotted against compound concentration. A four parameter equation describing a sigmoidal dose-response curve was then fitted with adjustable baseline using Assay Explorer software (Symyx Technologies Inc.). The reported IC50 values were generated from fitted curves by solving for the X-intercept value at the 50% activity level of the Y-intercept value.
# Lsp = Lsp (Escherichia coli, UniProt P00804); conditions: cited from earlier work
# [3] = target: Lsp FRET peptide substrate Dabsyl-VTGC((R)-2,3-di(palmitoyloxy)-propyl)AKD(EDANS); assay: cell-based or functional assay
# [4] = target: T1, Lsp FRET peptide substrate …
# T2 sequence (P00804 other isoform, or with tags, fused parts or gaps D131G/R160K): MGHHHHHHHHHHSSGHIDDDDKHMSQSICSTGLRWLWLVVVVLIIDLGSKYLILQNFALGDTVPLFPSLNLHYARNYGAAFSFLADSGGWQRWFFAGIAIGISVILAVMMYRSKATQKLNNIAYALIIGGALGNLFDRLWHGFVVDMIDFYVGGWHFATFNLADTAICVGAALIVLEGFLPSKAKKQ
molecule,measurement,setting,value
CCN(CC)CCc1cn(CC(=O)NC[C@]2(C)CCC[C@]3(C)c4ccc(C(C)C)cc4CC[C@@H]23)nn1 [BBS-20],IC50,E. coli Lsp [1],15 ± 4 µM
same,identified as Lsp inhibitor in Sharpless library screen,"E. coli Lsp [1]; 16 μM compound, 400 nM Lsp, 50 μM FRET substrate, triplicate",inhibitors
same,mode of inhibition,E. coli Lsp [1]; fixed concentrations of compound against varying concentrations of Lsp FRET substrate,noncompetitive
CCC(CC)c1nnc(NC(=O)c2cc(OC)c(OC)cc2[N+](=O)[O-])s1 [SR-01000270728-1],EC50,E. coli Lsp [2],2.2 µM
CCCCCCC1OC(=O)CNC(=O)C(C(C)O)NC(=O)C(CO)NC(=O)C(C(C)CC)NC(=O)C(CC(C)C)N(C)C(=O)C1C (stereo not shown) [globomycin],mode of inhibition,Lsp,noncompetitively
"E. coli lipoprotein signal peptidase (Lsp), full length, N-terminal His-tag fusion, DDM-solubilized and purified (from UniProt P00804 1-164) (enzyme)","substrate inhibition (Michaelis-Menten kinetics of peptide hydrolysis, FRET)",[3],> 100 µM
"E. coli lipoprotein signal peptidase (Lsp), full length, N-terminal His-tag fusion, DDM-solubilized and purified (protein) MSQSICSTGLRWLWLVVVVLIIDLGSKYLILQNFALGDTVPLFPSLNLHYARNYGAAFSFLADSGGWQRWFFAGIAIGISVILAVMMYRSKATQKLNNIAYALIIGGALGNLFDRLWHGFVVDMIDFYVGDWHFATFNLADTAICVGAALIVLEGFLPSRAKKQ","KM (Michaelis-Menten kinetics of peptide hydrolysis, FRET)",[4],KM=5 µM
